Earlier results as cited in patent US20140322356A1, “CTC BIOMARKER ASSAY TO COMBAT BREAST CANCER BRAIN METASTASIS” (Baylor College of Medicine, priority 2011, published 2014).

Tests used:
[1] = test system: MDA-MB-435 carcinoma cells; settings: MDA-MB-435 cells selected for metastatic growth in the brain
[2] = biological target: T1, heparanase (HPSE) (Homo sapiens, UniProt Q9Y251); settings: statement from literature, no value given
T1 sequence (Q9Y251 36-543): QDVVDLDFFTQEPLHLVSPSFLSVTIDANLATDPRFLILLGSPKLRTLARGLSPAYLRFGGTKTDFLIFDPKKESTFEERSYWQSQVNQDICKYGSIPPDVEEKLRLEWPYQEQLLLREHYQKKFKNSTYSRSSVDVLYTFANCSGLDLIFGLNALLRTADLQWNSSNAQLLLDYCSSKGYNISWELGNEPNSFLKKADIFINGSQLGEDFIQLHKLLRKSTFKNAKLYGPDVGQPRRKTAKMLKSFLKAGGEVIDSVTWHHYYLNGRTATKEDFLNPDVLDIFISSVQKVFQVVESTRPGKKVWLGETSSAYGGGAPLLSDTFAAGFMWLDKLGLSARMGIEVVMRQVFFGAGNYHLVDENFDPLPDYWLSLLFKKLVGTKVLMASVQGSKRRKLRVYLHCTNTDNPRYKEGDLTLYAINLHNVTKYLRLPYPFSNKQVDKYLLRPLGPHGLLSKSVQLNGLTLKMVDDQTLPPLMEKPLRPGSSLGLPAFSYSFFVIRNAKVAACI

| inhibition of heparanase [2] | Compound | tumor cell migration and invasion in vitro [1] |
| --- | --- | --- |
| – | C[C@H](NC(=O)Cc1cc(F)cc(F)c1)C(=O)N[C@H](C(=O)OC(C)(C)C)c1ccccc1 [DAPT] | inhibited |
| inhibitor of HPSE | Heparin | – |
